Measured values as given in patent US8735414B2 (priority 2009, dated 2014).
pIC50: −log10 of the molar value.

Key:
[1] = system: bicistronic HCV replicon (replicon RNA, GenBank Accession No. AJ242654); experiment: HCV Replicon Assay; type: cell-based; details: Hepatitis C virus, 72 h, read-out: Replicon IC50

Row | SMILES | pIC50 [1] | melting point [°C]
1 | C[C@H](NS(=O)(=O)c1ccc(-c2c(C#N)c3ccc(C#N)cc3n2CC2CC2)nc1)C(F)(F)F [compound 349, 6-[3,6-dicyano-1-(cyclopropylmethyl)-1H-indol-2-yl]-N-[(2S)-1,1,1-trifluoropropan-2-yl]pyridine-3-sulfonamide] | 5.70 to 6.30 | 187 to 188
2 | Cc1ccc2c(c1)c(C#N)c(-c1ccc(S(=O)(=O)N[C@H](C)C(F)(F)F)cn1)n2C1CCC1 [compound 484, 6-(3-cyano-1-cyclobutyl-5-methyl-1H-indol-2-yl)-N-[(2R)-1,1,1-trifluoropropan-2-yl]pyridine-3-sulfonamide] | > 6.30 | 134 to 142
3 | Cc1cc(-c2c(C#N)c3cc(F)ccc3n2-c2ccccn2)ncc1S(=O)(=O)N[C@@H](C)C(F)(F)F [compound 847, 6-[3-cyano-5-fluoro-1-(pyridin-2-yl)-1H-indol-2-yl]-4-methyl-N-[(2S)-1,1,1-trifluoropropan-2-yl]pyridine-3-sulfonamide] | > 6.30 | 180 to 186
4 | Cc1ccc2c(c1F)c(C#N)c(-c1ccc(S(=O)(=O)NC(C)(C)C(F)(F)F)cn1)n2C1CCCC1 [compound 614, 6-(3-cyano-1-cyclopentyl-4-fluoro-5-methyl-1H-indol-2-yl)-N-(1,1,1-trifluoro-2-methylpropan-2-yl)pyridine-3-sulfonamide] | 5.70 to 6.30 | 200 to 205
5 | N#Cc1c(-c2ccc(S(=O)(=O)NC(CF)CF)cn2)n(CC2CC2)c2cc(Cl)ccc12 [compound 62, 6-[6-chloro-3-cyano-1-(cyclopropylmethyl)-1H-indol-2-yl]-N-(1,3-difluoropropan-2-yl)pyridine-3-sulfonamide] | > 6.30 | 223 to 227
6 | N#Cc1c(-c2ncc(S(=O)(=O)NC(CF)CF)cn2)n(C2CCCC2)c2ccc(C(F)F)cc12 [compound 536, 2-[3-cyano-1-cyclopentyl-5-(difluoromethyl)-1H-indol-2-yl]-N-(1,3-difluoropropan-2-yl)pyrimidine-5-sulfonamide] | > 6.30 | 176 to 177
7 | C[C@H](NS(=O)(=O)c1ccc(-c2c(C#N)c3cc(Br)c(O)cc3n2C2CCC2)nc1)C(F)(F)F [compound 684, 6-(5-bromo-3-cyano-1-cyclobutyl-6-hydroxy-1H-indol-2-yl)-N-[(2S)-1,1,1-trifluoropropan-2-yl]pyridine-3-sulfonamide] | 5.70 to 6.30 | 223 to 224
8 | CC(C)NS(=O)(=O)c1cnc(-c2c(C#N)c3cc(Cl)ccc3n2C2CCCC2)nc1 [compound 314, 2-(5-chloro-3-cyano-1-cyclopentyl-1H-indol-2-yl)-N-(propan-2-yl)pyrimidine-5-sulfonamide] | > 6.30 | 239 to 245
9 | Cc1ccc2c(C#N)c(-c3ccc(S(=O)(=O)NC(CF)CF)cn3)n(C3CCCCC3)c2c1 [compound 513, 6-(3-cyano-1-cyclohexyl-6-methyl-1H-indol-2-yl)-N-(1,3-difluoropropan-2-yl)pyridine-3-sulfonamide] | > 6.30 | 195 to 203
10 | N#Cc1c(-c2ncc(S(=O)(=O)NC(CF)CF)cn2)n(C2CCC2)c2ccc(CF)cc12 [compound 377, 2-[3-cyano-1-cyclobutyl-5-(fluoromethyl)-1H-indol-2-yl]-N-(1,3-difluoropropan-2-yl)pyrimidine-5-sulfonamide] | > 6.30 | 131 to 134
11 | Cc1cc2c(cc1F)c(C#N)c(-c1ccc(S(=O)(=O)N[C@H](C)C(F)(F)F)cn1)n2-c1ccccn1 [compound 698, 6-[3-cyano-5-fluoro-6-methyl-1-(pyridin-2-yl)-1H-indol-2-yl]-N-[(2R)-1,1,1-trifluoropropan-2-yl]pyridine-3-sulfonamide] | > 6.30 | 170 to 174
12 | CC(C)n1c(-c2ncc(S(=O)(=O)NC(CF)CF)cn2)c(C#N)c2ccc(OC(F)F)cc21 [compound 137, 2-[3-cyano-6-(difluoromethoxy)-1-(propan-2-yl)-1H-indol-2-yl]-N-(1,3-difluoropropan-2-yl)pyrimidine-5-sulfonamide] | > 6.30 | 219 to 221
13 | N#Cc1c(-c2ncc(S(=O)(=O)NC(CF)CF)cn2)n(C2CCC2)c2cc(C3CCC3)ccc12 [compound 264, 2-(3-cyano-1,6-dicyclobutyl-1H-indol-2-yl)-N-(1,3-difluoropropan-2-yl)pyrimidine-5-sulfonamide] | 5.70 to 6.30 | 184 to 188
14 | Cc1ccc2c(c1)c(C#N)c(-c1ccc(S(=O)(=O)N[C@@H](C)C(F)(F)F)cn1)n2-c1cnccn1 [compound 845, 6-[3-cyano-5-methyl-1-(pyrazin-2-yl)-1H-indol-2-yl]-N-[(2S)-1,1,1-trifluoropropan-2-yl]pyridine-3-sulfonamide] | > 6.30 | 236 to 241
15 | C[C@H](NS(=O)(=O)c1ccc(-c2c(C#N)c3cc(C(F)(F)F)ccc3n2-c2cnccn2)nc1)C(F)(F)F [compound 897, 6-[3-cyano-1-(pyrazin-2-yl)-5-(trifluoromethyl)-1H-indol-2-yl]-N-[(2S)-1,1,1-trifluoropropan-2-yl]pyridine-3-sulfonamide] | > 6.30 | 255 to 258
16 | CC(C)n1c(-c2ccc(S(=O)(=O)NC(CF)CF)cn2)c(C#N)c2cc(Cl)ccc21 [compound 65, 6-[5-chloro-3-cyano-1-(propan-2-yl)-1H-indol-2-yl]-N-(1,3-difluoropropan-2-yl)pyridine-3-sulfonamide] | > 6.30 | 212 to 215
17 | N#Cc1c(-c2ccc(S(=O)(=O)NC(CF)CF)cn2)n(C2CCC2)c2cc(Cl)ccc12 [compound 37, 6-(6-chloro-3-cyano-1-cyclobutyl-1H-indol-2-yl)-N-(1,3-difluoropropan-2-yl)pyridine-3-sulfonamide] | > 6.30 | 200 to 202
18 | Cc1cc2c(C#N)c(-c3ccc(S(=O)(=O)N[C@@H](C)C(F)(F)F)cn3)n(C3CCC3)c2cc1F [compound 492, 6-(3-cyano-1-cyclobutyl-6-fluoro-5-methyl-1H-indol-2-yl)-N-[(2S)-1,1,1-trifluoropropan-2-yl]pyridine-3-sulfonamide] | > 6.30 | 185 to 190
19 | Cc1ccc2c(c1)c(C#N)c(-c1ncc(S(=O)(=O)NC(CF)CF)cn1)n2C1CCC1 [compound 122, 2-(3-cyano-1-cyclobutyl-5-methyl-1H-indol-2-yl)-N-(1,3-difluoropropan-2-yl)pyrimidine-5-sulfonamide] | > 6.30 | 140 to 145
20 | CCc1cc2c(cc1F)c(C#N)c(-c1cc(C)c(S(=O)(=O)N[C@H](C)C(F)(F)F)cn1)n2-c1ccccn1 [compound 891, 6-[3-cyano-6-ethyl-5-fluoro-1-(pyridin-2-yl)-1H-indol-2-yl]-4-methyl-N-[(2R)-1,1,1-trifluoropropan-2-yl]pyridine-3-sulfonamide] | > 6.30 | 178 to 183
21 | N#Cc1c(-c2ncc(S(=O)(=O)NC(CF)CF)cn2)n(C2CCCCC2)c2ccc(F)cc12 [compound 527, 2-(3-cyano-1-cyclohexyl-5-fluoro-1H-indol-2-yl)-N-(1,3-difluoropropan-2-yl)pyrimidine-5-sulfonamide] | > 6.30 | 250 to 253
22 | N#Cc1c(-c2ccc(S(=O)(=O)NC(CF)CF)cn2)n(C2CCCC2)c2cc(Cl)ccc12 [compound 64, 6-(6-chloro-3-cyano-1-cyclopentyl-1H-indol-2-yl)-N-(1,3-difluoropropan-2-yl)pyridine-3-sulfonamide] | > 6.30 | 236 to 240
23 | Cc1ccc2c(c1)c(C#N)c(-c1ccc(S(=O)(=O)NC(CF)CF)cn1)n2C1CCCCC1 [compound 199, 6-(3-cyano-1-cyclohexyl-5-methyl-1H-indol-2-yl)-N-(1,3-difluoropropan-2-yl)pyridine-3-sulfonamide] | > 6.30 | 210 to 215
24 | C[C@H](NS(=O)(=O)c1ccc(-c2c(C#N)c3cc(O)c(OC(F)F)cc3n2C2CCC2)nc1)C(F)(F)F [compound 674, 6-[3-cyano-1-cyclobutyl-6-(difluoromethoxy)-5-hydroxy-1H-indol-2-yl]-N-[(2S)-1,1,1-trifluoropropan-2-yl]pyridine-3-sulfonamide] | > 6.30 | 174 to 177
25 | CCc1cc2c(cc1F)c(C(N)=O)c(-c1ccc(NS(=O)(=O)C(C)(C)C)nc1)n2[C@H](C)C1CC1 [compound 1104, 2-{6-[(tert-butylsulfonyl)amino]pyridin-3-yl}-1-[(1R)-1-cyclopropylethyl]-6-ethyl-5-fluoro-1H-indole-3-carboxamide] | > 6.30 | 255.5 to 259
26 | C[C@H](NS(=O)(=O)c1ccc(-c2c(C#N)c3ccc(OC(F)F)cc3n2-c2ncccn2)nc1)C(F)(F)F [compound 512, 6-[3-cyano-6-(difluoromethoxy)-1-(pyrimidin-2-yl)-1H-indol-2-yl]-N-[(2S)-1,1,1-trifluoropropan-2-yl]pyridine-3-sulfonamide] | > 6.30 | 186 to 189
27 | Cc1c(F)cc2c(c1F)c(C#N)c(-c1ccc(S(=O)(=O)NC(CF)CF)cn1)n2C1CCC1 [compound 556, 6-(3-cyano-1-cyclobutyl-4,6-difluoro-5-methyl-1H-indol-2-yl)-N-(1,3-difluoropropan-2-yl)pyridine-3-sulfonamide] | > 6.30 | 207 to 212
28 | COc1ccc2c(C#N)c(-c3ncc(S(=O)(=O)NC(CF)CF)cn3)n(C3CCCCC3)c2c1 [compound 520, 2-(3-cyano-1-cyclohexyl-6-methoxy-1H-indol-2-yl)-N-(1,3-difluoropropan-2-yl)pyrimidine-5-sulfonamide] | 5.70 to 6.30 | 209 to 215
29 | C[C@H](NS(=O)(=O)c1ccc(-c2c(C#N)c3ccc(C4CC4)cc3n2C2CCCC2)nc1)C(F)(F)F [compound 383, 6-(3-cyano-1-cyclopentyl-6-cyclopropyl-1H-indol-2-yl)-N-[(2S)-1,1,1-trifluoropropan-2-yl]pyridine-3-sulfonamide] | > 6.30 | 178 to 181
